Reference: patent publication US5411984A, “Water soluble analogs and prodrugs of taxol” (Virginia Tech Intellectual Properties, Inc., priority 1992, dated 1995)
Counter-ions that a name gives are not always drawn. Each block holds one compound with its values, some of them ahead of it.

Legend:
[1] = Deutsch et al.; cited from earlier work
[2] = test system: M109 lung carcinoma; assay: In vivo activity against M109 lung carcinoma implanted intraperitoneally (mice M109 model), median survival; parameters: species or system Balb/o x DBA/2 F1 hybrid mice
Description: Balb/o x DBA/2 F1 hybrid mice were implanted intraperitoneally, as described by William Rose in "Evaluation of Madison 109 Lung Carcinoma as a Model for Screening Antitumor Drugs, "Cancer Treatment Reports, 65 No. 3-4 (1981), with 0.5 mL of a 2% (w/v) brei of M109 lung carcinoma (the mice M109 model).
Mice were treated with a compound under study by receiving intraperitoneal injections of various doses on either Day 1, 5, and 9 post-tumor implant or Days 5 and 8 post-implant. Mice were followed daily for survival until approximately 75-90 days post-tumor implant. One group of mice per experiment remained untreated and served as the control group.
Median survival times of compound-treated (T) mice were compared to the median survival time of the control (C) mice. The ratio of the two values for each compound-treated group of mice was multiplied by 100 and expressed as a percentage (i.e.% T/C) in Table 2 for certain representative compounds.

[3] = cited from earlier work
[4] = test system: B16 melanoma cells; conditions: compared with taxol; cited from earlier work
[5] = cited from earlier work; remark: listed apart in the source
[6] = cited from earlier work; remark: listed apart in the source
[7] = Stability in mildly basic aqueous solution; format: physicochemical
[8] = Stability in pH 5 buffer / mildly acidic aqueous solution (HPLC or TLC, onset of cloudiness); format: physicochemical; conditions: room temperature
Description: **Stabilities were determined in pH 5 buffer solution by one of the two
methods indicated below.
(a) 9.5 mg of sample was dissolved in 0.2 ml of EtOH and 0.2 ml of pH 5
buffer solution and let stand at room temperature. The progress of
decomposition was checked by HPLC or TLC and observation of the onset of
(b) 0.5 mg of sample was dissolved in 0.1 ml of EtOH and 0.9 ml of pH 5
buffer solution, the other conditions were the same as in (a) above. All
samples were stable under these conditions for at least 24 hours. No
hydrolysis was detectable by HPLC or TLC during this time period.

[9] = Relative solubility by the 1-octanol and water partition method (UV absorption at 228 nm), taxol = 1
Description: In separate experiments, taxol derivative 4 and 2'-succinyl taxol (R=NaO2 CCH2 CH2 CO2) were dissolved in a mildly basic aqueous solution.
*Solubilities were determined by using the 1octanol and water partition
method.Sample concentrations in water were determined by UV absorptions a […]

[10] = test system: tubulin; conditions: cited from earlier work
[11] = method (b): 0.5 mg in 0.1 ml EtOH and 0.9 ml pH 5 buffer
[12] = method (a): 9.5 mg in 0.2 ml EtOH and 0.2 ml pH 5 buffer

Compound: CC(=O)O[C@H]1C(=O)[C@@]2(C)[C@H]([C@H](OC(=O)c3ccccc3)[C@]3(O)C[C@H](OC(=O)[C@H](OC(=O)CCCC(=O)NCCCN(C)C)[C@@H](NC(=O)c4ccccc4)c4ccccc4)C(C)=C1C3(C)C)[C@]1(OC(C)=O)CO[C@@H]1C[C@@H]2O
antitumor activity [1]: good solubility and bioactivity

Compound: 2'-(4-benzyloxocarbonylbensoyl -7-(4-carboxybensoyl)taxol [Compound 17]
T/C ([2]; Q03Dx2;5, ip/ip, dose 13): 97% | T/C ([2]; Q03Dx2;5, ip/ip, dose 26): 100% | T/C ([2]; Q03Dx2;5, ip/ip, dose 52): 109%

Compound: CC(=O)O[C@H]1C(=O)[C@]2(C)[C@@H](OC(C)=O)C[C@H]3OC[C@@]3(OC(C)=O)[C@H]2[C@H](OC(=O)c2ccccc2)[C@]2(O)C[C@H](OC(=O)[C@H](OC(C)=O)[C@@H](NC(=O)c3ccccc3)c3ccccc3)C(C)=C1C2(C)C [2',7-diacetyltaxol]
hydrolysis of acyl substituents under in vivo conditions [3]: readily hydrolyzed

Compound: CC(=O)O[C@H]1C(=O)[C@@]2(C)[C@H]([C@H](OC(=O)c3ccccc3)[C@]3(O)C[C@H](OC(=O)[C@H](OC(=O)CN(C)C)[C@@H](NC(=O)c4ccccc4)c4ccccc4)C(C)=C1C3(C)C)[C@]1(OC(C)=O)CO[C@@H]1C[C@@H]2O [2'-(N,N-dimethylglycyl) taxol]
inhibition of proliferation of B16 melanoma cells relative to taxol [4]: to an extent similar to that of taxol

Compound: CC(=O)O[C@H]1C(=O)[C@@]2(C)[C@H]([C@H](OC(=O)c3ccccc3)[C@]3(O)C[C@H](OC(=O)[C@H](OC(=O)CCC(=O)NCCCS(=O)(=O)O)[C@@H](NC(=O)c4ccccc4)c4ccccc4)C(C)=C1C3(C)C)[C@]1(OC(C)=O)CO[C@@H]1C[C@@H]2O [2'-([4-((3-sulfopropyl)amino-1,4-dioxobutyl]oxy)taxolsodium salt]
antineoplastic activity in mice [5]: active as antineoplastic agents in mice | aqueous solubility [6]: improved water-solubility as compared with taxol

Compound: CC(=O)O[C@H]1C(=O)[C@@]2(C)[C@H]([C@H](OC(=O)c3ccccc3)[C@]3(O)C[C@H](OC(=O)[C@H](OC(=O)CCN(C)C)[C@@H](NC(=O)c4ccccc4)c4ccccc4)C(C)=C1C3(C)C)[C@]1(OC(C)=O)CO[C@@H]1C[C@@H]2O [2'-[3-(N,N-dimethylamino)propionyl]taxol]
inhibition of proliferation of B16 melanoma cells relative to taxol [4]: to an extent similar to that of taxol

Compound: CC(=O)O[C@H]1C(=O)[C@@]2(C)[C@H]([C@H](OC(=O)c3ccccc3)[C@]3(O)C[C@H](OC(=O)[C@H](OC(C)=O)[C@@H](NC(=O)c4ccccc4)c4ccccc4)C(C)=C1C3(C)C)[C@]1(OC(C)=O)CO[C@@H]1C[C@@H]2O [2'-acetyltaxol]
hydrolysis of acyl substituents under in vivo conditions [3]: readily hydrolyzed

time until solution turned cloudy [7]: less than 24 hours | degraded at 24 h ([7]; read-out: decomposed): ~50%
Compound: CC(=O)O[C@H]1C(=O)[C@@]2(C)[C@H]([C@H](OC(=O)c3ccccc3)[C@]3(O)C[C@H](OC(=O)[C@H](OC(=O)CCC(=O)O)[C@@H](NC(=O)c4ccccc4)c4ccccc4)C(C)=C1C3(C)C)[C@]1(OC(C)=O)CO[C@@H]1C[C@@H]2O [2'-succinyl taxol, 2'-succinyl taxol (R=NaO2 CCH2 CH2 CO2), reference compound]

Compound: CC(=O)O[C@H]1C(=O)[C@@]2(C)[C@H]([C@H](OC(=O)c3ccccc3)[C@]3(O)C[C@H](OC(=O)[C@H](OC(=O)CCC(=O)NCCS(=O)(=O)O)[C@@H](NC(=O)c4ccccc4)c4ccccc4)C(C)=C1C3(C)C)[C@]1(OC(C)=O)CO[C@@H]1C[C@@H]2O [--O2 CCH2 CH2 CONHCH2 --CH2 SO3 Na, 2'-([4-((2-sulfoethyl)amino)-1,4-dioxobutyl]oxy)taxol sodium salt]
Stabilities at pH 5 [8, 11]: > 24 h | antineoplastic activity in mice [5]: active as antineoplastic agents in mice | aqueous solubility [6]: improved water-solubility as compared with taxol

Compound: CC(=O)O[C@H]1C(=O)[C@@]2(C)[C@H]([C@H](OC(=O)c3ccccc3)[C@]3(O)C[C@H](OC(=O)[C@H](OC(=O)CCS(=O)(=O)O)[C@@H](NC(=O)c4ccccc4)c4ccccc4)C(C)=C1C3(C)C)[C@]1(OC(C)=O)CO[C@@H]1C[C@@H]2O [--O2 CCH2 CH2 SO3 Na, 2'-[(3-sulfo-1-oxopropyl)oxy]taxol sodium salt]
Stabilities at pH 5 [8, 11]: > 24 h | antineoplastic activity in mice [5]: active as antineoplastic agents in mice | aqueous solubility [6]: improved water-solubility as compared with taxol

Relative Solubility (p') [9]: 3 | Stabilities at pH 5 [8, 12]: > 24 h | appearance of solution [7]: remained clear | extent of decomposition [7]: remained substantially intact
Compound: CC(=O)O[C@H]1C(=O)[C@@]2(C)[C@H]([C@H](OC(=O)c3ccccc3)[C@]3(O)C[C@H](OC(=O)[C@H](OC(=O)c4ccccc4C(=O)O)[C@@H](NC(=O)c4ccccc4)c4ccccc4)C(C)=C1C3(C)C)[C@]1(OC(C)=O)CO[C@@H]1C[C@@H]2O [Compound 4, Taxol 2'-(sodium 1,2-benzenedicarboxylate)]
T/C ([2]; Q03Dx2;5, ip/ip, dose 15): 106% | T/C ([2]; Q03Dx2;5, ip/ip, dose 30): 135% | T/C ([2]; Q03Dx2;5, ip/ip, dose 60): 141%

Compound: CC(=O)O[C@H]1C(=O)[C@@]2(C)[C@H]([C@H](OC(=O)c3ccccc3)[C@]3(O)C[C@H](OC(=O)[C@H](OC(=O)c4ccc(C(=O)O)cc4)[C@@H](NC(=O)c4ccccc4)c4ccccc4)C(C)=C1C3(C)C)[C@]1(OC(C)=O)CO[C@@H]1C[C@@H]2O [Compound 7, Taxol 2'-(sodium 1,4-benzenedioarboxylate)]
solubility relative to ortho benzoyl carboxylate derivative 4 ([9]; compared with 4): twice as soluble | Stabilities at pH 5 [8, 12]: > 24 h | T/C ([2]; Q03Dx2;5, ip/ip, dose 15): 112% | T/C ([2]; Q03Dx2;5, ip/ip, dose 30): 141% | T/C ([2]; Q03Dx2;5, ip/ip, dose 60): 141% | in vivo biological activity relative to derivative 4 ([2]; mice M109 model): superior in vivo biological activity

Compound: CC(=O)O[C@H]1C(=O)[C@@]2(C)[C@H]([C@H](OC(=O)c3ccccc3)[C@]3(O)C[C@H](OC(=O)[C@H](OC(=O)c4cc(C(=O)O)cc(C(=O)O)c4)[C@@H](NC(=O)c4ccccc4)c4ccccc4)C(C)=C1C3(C)C)[C@]1(OC(C)=O)CO[C@@H]1C[C@@H]2O [Compound 8c, Taxol 2'-(disodium 1,3,5-benzenetricarboxylate)]
Stabilities at pH 5 [8, 11]: > 24 h

Relative Solubility (p') [9]: 96 | Stabilities at pH 5 [8, 11]: > 24 h
Compound: CC(=O)O[C@H]1C(=O)[C@@]2(C)[C@H]([C@H](OC(=O)c3ccccc3)[C@]3(O)C[C@H](OC(=O)[C@H](OC(=O)c4ccccc4S(=O)(=O)O)[C@@H](NC(=O)c4ccccc4)c4ccccc4)C(C)=C1C3(C)C)[C@]1(OC(C)=O)CO[C@@H]1C[C@@H]2O [Compound 11, 2'-(2-Sulfobenzoyl) taxol, sodium salt]

Relative Solubility (p') [9]: 166 | Stabilities at pH 5 [8, 11]: > 24 h
Compound: CC(=O)O[C@H]1C(=O)[C@@]2(C)[C@H]([C@H](OC(=O)c3ccccc3)[C@]3(O)C[C@H](OC(=O)[C@H](OC(=O)c4ccc(S(=O)(=O)O)cc4)[C@@H](NC(=O)c4ccccc4)c4ccccc4)C(C)=C1C3(C)C)[C@]1(OC(C)=O)CO[C@@H]1C[C@@H]2O [Compound 12, 2'-(4-sulfobenzoyl) taxol, sodium salt]

Compound: CCN(CC)CCNC(=O)c1ccc(C(=O)O[C@@H](C(=O)O[C@H]2C[C@@]3(O)[C@@H](OC(=O)c4ccccc4)[C@@H]4[C@]5(OC(C)=O)CO[C@@H]5C[C@H](O)[C@@]4(C)C(=O)[C@H](OC(C)=O)C(=C2C)C3(C)C)[C@@H](NC(=O)c2ccccc2)c2ccccc2)cc1 [Compound 13b, 2'-[4-([2-(N,N-diethylamino)ethyl]aminocarbonyl)benzoyl]taxol, hydrochloride]
Stabilities at pH 5 [8, 12]: > 24 h | T/C ([2]; Z03Dx2;5, ip/ip, dose 50): 118% | T/C ([2]; Z03Dx2;5, ip/ip, dose 100): 118% | T/C ([2]; Z03Dx2;5, ip/ip, dose 200): 124%

Compound: CC(=O)O[C@H]1C(=O)[C@]2(C)[C@@H](OC(=O)c3ccccc3C(=O)O)C[C@H]3OC[C@@]3(OC(C)=O)[C@H]2[C@H](OC(=O)c2ccccc2)[C@]2(O)C[C@H](OC(=O)[C@H](OC(=O)c3ccccc3C(=O)O)[C@@H](NC(=O)c3ccccc3)c3ccccc3)C(C)=C1C2(C)C [Compound 15, Taxol 2',7-di(sodium 1,2-benzenedicarboxylate)]
T/C ([2]; Z03Dx2;5, site/route not given, dose 15): 100% | T/C ([2]; Z03Dx2;5, site/route not given, dose 30): 103% | T/C ([2]; Z03Dx2;5, site/route not given, dose 60): 106%

Compound: CC[C@]1(O)C[C@@H]2CN(CCc3c([nH]c4ccccc34)[C@@](C(=O)OC)(c3cc4c(cc3OC)N(C)[C@H]3[C@@](O)(C(=O)OC)[C@H](OC(C)=O)[C@]5(CC)C=CCN6CC[C@]43[C@@H]65)C2)C1 [vinblastine]
effect on microtubule / tubulin polymer formation [10]: prevent microtubule formation
